Experiments:
[1] = tested on: Moloney murine leukemia virus; assay: Compound was tested for its antagonistic activity against Moloney leukemia virus (MoLV) replication; type: functional, organism-based
Mus musculus = organism: Mus musculus; assay: Percentage control against LPS stimulated IL-1-alpha formation in murine peritoneal macrophages was measured by IL-1-alpha ELISA; type: functional; parameters: concentration or dose not given beside the values

| Compound | IC50 [1] [µM] | Control (Mus musculus) [%] |
| --- | --- | --- |
| CCCCCCCCCCCCC[S+](=N)([O-])CC(=O)OCC (stereo not given) | 24 | 190 |
| C/C=C/C/C=C/CCC(=O)[C@H]1O[C@H]1C(N)=O [CERULENIN] | 2.7 | 170 |

More lines, main results first:

| IC50 [1] [µM] | Compound | Control (Mus musculus) [%] |
| --- | --- | --- |
| 10 | CCCCCCCCCCCCC[S+](=N)([O-])CCC (stereo not given) | 206 |
| 5 | CCCCCCCCCCCCC[S+](C)(=N)[O-] (stereo not given) | 123 |
| 15 | CCCCCCCCCCCCC[S+](=N)([O-])Cc1ccccc1 (stereo not given) | 326 |
